Converted amounts (≈) assume the structure as drawn.
How the values were obtained:
[1] = system: Saccharomyces cerevisiae (YPH501); experiment: Anti-fungal/anti-yeast activity: MIC50 (broth microdilution) and MFC; format: cell-based; conditions: for MFC / MIC: Saccharomyces cerevisiae; for Activity (fungicidal/fungistatic) / Ratio MFC/MIC: Saccharomyces cerevisiae (YPH501); for MIC: read-out: MIC-50
C. albicans Mutants = experiment: MIC50 in C. albicans mutant strains; format: cell-based; conditions: Candida albicans
Protocol: (§1) The minimum inhibitory concentrations resulting in 50% growth inhibition (MIC50) of […] Candida species (C. albicans, C. tropicalis and C. glabrata, C. lusitaniae, C. parapsilosis, and C. apicola) as well as Aspergillus fumigatus to a set of novel synthetic compounds was determined in accordance with the guidelines in CLSI document M27-A2 (Clinical and Laboratory Standards Institute; Wayne, Pa.). The total volume of cells and drug was 100 μL per microtiter well, and each drug was diluted in RPMI to achieve final concentrations of 0.2-100 μg/ml. Uninoculated cultures were used as a reference standard. Stock inoculum suspensions were prepared from 24 hour cultures on YPD (yeast extract/peptone/dextrose) media at 30° C. For MIC determinations, an inoculum of 1.0×10^3 cells of Candidia and 2.0×10^3 cells of Aspergillus per well were used, and cells in diluted drugs were prepared in RPMI-1640 medium. MICs were determined both visually and spectrophotometrically at 24 hours and 48 h at 550 nm using a micro plate reader. The MIC50 endpoint was measured as the lowest drug concentration resulting in a reduction of growth of 50% or more compared with growth of the control.
The MIC50 of Compounds I-1, I-2, and I-5 in several mutant strains of Candida albicans, including fluconazole resistant clinical strains, was determined according to the methods described in Example 1 (see Table 9). The activity of Compound I-1 against fluconazole resistant strains was further explored (see Table 10). In Table 10, Strain #1 is a fluconazole sensitive Candida albicans strain; Strain #17 is a fluconazole resistant Candida albicans strain; C. albicans CS#01 is a first clinical strain; C. albicans CS#02 is a second clinical strain.

Huh7 or HepG2 cell line = experiment: MTT assay (cytotoxicity); format: cell-based, human; conditions: 24 hours and 48 hours
Protocol: The MTT assay is a colorimetric assay that measures the reduction of yellow 3-(4,5-dimethylhiazol-2-yl)-2,5-diphenyl tetrazolium bromide (MTT) by mitochondrial succinate dehydrogenase. The MTT enters the cells and passes into the mitochondria where it is reduced to an insoluble, dark purple, formazan product. The cells are then solubilized with an organic solvent (e.g., isopropanol) and the released, solubilized formazan reagent is measured spectrophotometrically. Since reduction of MTT can only occur in metabolically active cells, the level of activity is a measure of the viability of the cells.
Cells of the Huh7 or HepG2 cell line were seeded in a 96 well plate. The plate was incubated overnight at 37° C. in a humidified incubator, 5% CO2. The test compounds were added to the plate. Different concentrations of drug were tested in triplicate along with a negative control. The final volume was adjusted to 100 μl per well. The plate was incubated overnight at 37° C. in a humidified incubator, 5% CO2. After 24 hours and 48 hours, MTT reagent (5 mg/ml, 10 μl/100 μl per well of the 96 well plate) was added and incubated at 37° C. for 3 hours. After 3 hours, 100 μl of the DMSO solution was added to each well and the plate was rocked at room temperature for 1 hour. The plate was then read on a plate reader at […].

Candida tropicalis = experiment: Anti-fungal/anti-yeast activity: MIC50 (broth microdilution) and MFC; format: cell-based; conditions: for MIC: read-out: MIC-50
Protocol: (§2) Fluconazole, an ergosterol inhibitor, and the beta-1,3-glucan inhibitor micafungin served as controls (See Tables 1-8).
as §1
(§3) The minimum fungicidal concentrations (MFCs) were determined for each drug-isolate-medium combination as follows. After 48 hours of incubation, 100 μL of each drug-isolate-medium combination (2 plates) was subcultured onto YPD plates (100 μL of solution was spread over the YPD plate). […] The plates were then incubated at 30° C. for 48 hours.
(§4) The in vitro fungicidal activities (MFCs) were determined for each drug-isolate-medium combination as follows. After 48 hours of incubation, 10 μL each drug-isolate-medium combination was spotted onto YPD plates (10 μL of each well is spotted sequentially with positive and negative control wells). […] The plates were then incubated at 30° C. for 48 hours.

Candida glabrata = experiment: as above; format: cell-based; conditions: for Activity (fungicidal/fungistatic) / Ratio MFC/MIC: Candida glabrata; for MFC / MIC: Nakaseomyces glabratus; for MIC: read-out: MIC-50
Protocol: as §2, §1, §3, §4

Candidia parapsilosis = experiment: as above; format: cell-based; conditions: for Activity (fungicidal/fungistatic) / Ratio MFC/MIC: Candidia parapsilosis; for MIC: read-out: MIC-50
Protocol: as §2, §1, §3, §4

Candida apicola = experiment: as above; format: cell-based; conditions: for Activity (fungicidal/fungistatic) / MIC-50 / Ratio MFC/MIC: Candida apicola; for MFC: Starmerella apicola
Protocol: as §2, §1, §3, §4

Candida albicans (CAF-2) = experiment: as above; format: cell-based; conditions: for MIC: read-out: MIC-50
Protocol: as §2, §1, §3, §4

Candida lusitaniae = experiment: as above; format: cell-based; conditions: for Activity (fungicidal/fungistatic) / Ratio MFC/MIC: Candida lusitaniae; for MFC / MIC: Clavispora lusitaniae; for MIC: read-out: MIC-50
Protocol: as §2, §1, §3, §4

Huh7 cells = experiment: Neutral red uptake assay (cytotoxicity); format: cell-based, human
Excerpt: The neutral red uptake assay is a cytotoxicity test that is based on the ability of viable cells to incorporate and bind the supra-vital dye neutral red in the lysosomes. This weakly cationic dye penetrates cell membranes by non-ionic passive diffusion and concentrates in the lysosomes, where it binds by electrostatic hydrophobic bonds to anionic and phosphate groups of the lysosomal matrix. The dye is then extracted from the viable cells using an acidified ethanol solution, and the absorbance of the solubilized dye is read. When the cell dies or the pH gradient is reduced, the dye is not retained and consequently, the amount of retained dye is proportional to the number of viable cells. Most primary cells and cell lines can be used for this method. The HepG2 and Huh7, two human hepatoma cell lines, were used for this study. The cells were seeded in 96-well tissue culture plates and treated for 48 hours with the compounds. The plates were then incubated for 2 hours with a medium containing neutral red. The cells were subsequently washed, the dye was extracted in each well, and the absorbance was read using a spectrophotometer (FIG. 3 and Table 11).

Aspergillus fumigatus = experiment: Anti-fungal/anti-yeast activity: MIC50 (broth microdilution) and MFC; format: cell-based
Protocol: as §2, §1, §3, §4

Row | SMILES | MFC [1] | Activity (fungicidal/fungistatic) [1] | Ratio MFC/MIC [1] | MIC [1] | Toxicity to mammalian cell lines (MTT assay) (Huh7 or HepG2 cell line) | Activity (fungicidal/fungistatic) (Candida tropicalis) | MFC (Candida tropicalis) | Ratio MFC/MIC (Candida tropicalis) | MIC (Candida tropicalis) | Activity (fungicidal/fungistatic) (Candida glabrata) | Ratio MFC/MIC (Candida glabrata) | MFC (Candida glabrata) | MIC (Candida glabrata) | MFC (Candidia parapsilosis) | Activity (fungicidal/fungistatic) (Candidia parapsilosis) | Ratio MFC/MIC (Candidia parapsilosis) | MIC (Candidia parapsilosis) | Activity (fungicidal/fungistatic) (Candida apicola) | MIC-50 (Candida apicola) | Ratio MFC/MIC (Candida apicola) | further results
1 | O=C(Cn1sc2ccccc2c1=O)NNC(=O)c1cccc(Cl)c1 [Compound I-5] | 3 µg/mL (≈ 8.29 µM) | fungicidal (An MFC/MIC ratio of less than four indicates that the compound is fungicidal) | 1 | 3 µg/mL (≈ 8.29 µM) | minimally toxic | fungicidal (An MFC/MIC ratio of less than four indicates that the compound is fungicidal) | 12.5 µg/mL | 2 | 6.4 µg/mL | fungicidal (An MFC/MIC ratio of less than four indicates that the compound is fungicidal) | 1 | 6.4 µg/mL | 6.4 µg/mL | 12.5 µg/mL | fungicidal (An MFC/MIC ratio of less than four indicates that the compound is fungicidal) | 2 | 6.4 µg/mL | fungicidal (An MFC/MIC ratio of less than four indicates that the compound is fungicidal) | 6.4 µg/mL | 2 | MIC50 (C. albicans Mutants; C. albicans strain CAF-2): 6 µg/mL (≈ 16.6 µM); MIC50 (C. albicans Mutants; C. albicans strain CHK11): 6 µg/mL (≈ 16.6 µM); MIC50 (C. albicans Mutants; C. albicans strain CHK21): 6 µg/mL (≈ 16.6 µM); MIC50 (C. albicans Mutants; C. albicans strain CHK23): 6 µg/mL (≈ 16.6 µM); MIC50 (C. albicans Mutants; C. albicans strain GOA31): 6 µg/mL (≈ 16.6 µM); MIC50 (C. albicans Mutants; C. albicans strain GOA32): 6 µg/mL (≈ 16.6 µM); MFC (Candida apicola): 12.5 µg/mL; Activity (fungicidal/fungistatic) (Candida albicans (CAF-2)): fungicidal (An MFC/MIC ratio of less than four indicates that the compound is fungicidal); MFC (Candida albicans (CAF-2)): 12.5 µg/mL; Ratio MFC/MIC (Candida albicans (CAF-2)): 2; MIC (Candida albicans (CAF-2)): 6.4 µg/mL; Activity (fungicidal/fungistatic) (Candida lusitaniae): fungicidal (An MFC/MIC ratio of less than four indicates that the compound is fungicidal); Ratio MFC/MIC (Candida lusitaniae): 2; MFC (Candida lusitaniae): 6.4 µg/mL; MIC (Candida lusitaniae): 3.2 µg/mL; Percentage Viability (Huh7 cells; 3.3 μg/mL (approx 1X MIC)): >100%; Percentage Viability (Huh7 cells; 10 μg/mL (approx 3X MIC)): >100%; Percentage Viability (Huh7 cells; 33 μg/mL (approx 10X MIC)): >100%; Percentage Viability (Huh7 cells; 100 μg/mL (approx 30X MIC)): 92%
2 | COc1ccc(Cc2nnc(Cn3sc4ccccc4c3=O)o2)cc1 [Compound I-3] | 12.5 µg/mL (≈ 35.4 µM) | fungicidal (An MFC/MIC ratio of less than four indicates that the compound is fungicidal) | 1 | 12.5 µg/mL (≈ 35.4 µM) | minimally toxic | fungicidal (An MFC/MIC ratio of less than four indicates that the compound is fungicidal) | 12.5 µg/mL | 2 | 6.4 µg/mL | fungicidal (An MFC/MIC ratio of less than four indicates that the compound is fungicidal) | 2 | 50 µg/mL | 25 µg/mL | 12.5 µg/mL | fungicidal (An MFC/MIC ratio of less than four indicates that the compound is fungicidal) | 2 | 6.4 µg/mL | fungicidal (An MFC/MIC ratio of less than four indicates that the compound is fungicidal) | 6.4 µg/mL | 2 | Activity (fungicidal/fungistatic) (Aspergillus fumigatus): fungicidal (An MFC/MIC ratio of less than four indicates that the compound is fungicidal); MFC (Aspergillus fumigatus): 12.5 µg/mL; MIC50 (Aspergillus fumigatus): 6.4 µg/mL; Ratio MFC/MIC (Aspergillus fumigatus): 2; MFC (Candida apicola): 12.5 µg/mL; Activity (fungicidal/fungistatic) (Candida albicans (CAF-2)): fungicidal (An MFC/MIC ratio of less than four indicates that the compound is fungicidal); MFC (Candida albicans (CAF-2)): 12.5 µg/mL; Ratio MFC/MIC (Candida albicans (CAF-2)): 1; MIC (Candida albicans (CAF-2)): 12.5 µg/mL; Activity (fungicidal/fungistatic) (Candida lusitaniae): fungicidal (An MFC/MIC ratio of less than four indicates that the compound is fungicidal); Ratio MFC/MIC (Candida lusitaniae): 2; MFC (Candida lusitaniae): 12.5 µg/mL; MIC (Candida lusitaniae): 6.4 µg/mL; Percentage Viability (Huh7 cells; 3.3 μg/mL (approx 1X MIC)): >100%; Percentage Viability (Huh7 cells; 10 μg/mL (approx 3X MIC)): >100%; Percentage Viability (Huh7 cells; 33 μg/mL (approx 10X MIC)): >100%; Percentage Viability (Huh7 cells; 100 μg/mL (approx 30X MIC)): >100%
